Data taken from ChEMBL document CHEMBL1134995, “Enhancement of pharmacokinetic properties and in vivo efficacy of benzylidene ketal M(2) muscarinic receptor antagonists via benzamide modification” (Bioorg Med Chem Lett, 2002).
Active and inactive are the calls of the source. The rule behind the calls is not given here.

Assays:
[1] = Oral bioavailability in cynomolgus monkeys was determined; Acceptable; assay type: ADME, organism-based, Macaca fascicularis; conditions: cynomolgus monkey, in vivo
Rattus norvegicus [2] = assay: Effect of compound on heart rate in rats at 3 and 10 mg/kg was determined; Increase; assay type: functional, organism-based; parameters: dose 10 mg/kg
[3] = Oral bioavailability in rats was determined; High; assay type: ADME, organism-based; conditions: rat, in vivo
[4] = Area under curve was determined
Rattus norvegicus [5] = assay: Effect of compound on heart rate in rats at 1 mg/kg was determined; Not effected; assay type: functional, organism-based; parameters: dose 1 mg/kg
[6] = biological target: T1, Muscarinic acetylcholine receptor M2 (Rattus norvegicus, UniProt P10980); assay: Binding affinity towards Muscarinic acetylcholine receptor M2
T1 sequence (P10980 whole entry): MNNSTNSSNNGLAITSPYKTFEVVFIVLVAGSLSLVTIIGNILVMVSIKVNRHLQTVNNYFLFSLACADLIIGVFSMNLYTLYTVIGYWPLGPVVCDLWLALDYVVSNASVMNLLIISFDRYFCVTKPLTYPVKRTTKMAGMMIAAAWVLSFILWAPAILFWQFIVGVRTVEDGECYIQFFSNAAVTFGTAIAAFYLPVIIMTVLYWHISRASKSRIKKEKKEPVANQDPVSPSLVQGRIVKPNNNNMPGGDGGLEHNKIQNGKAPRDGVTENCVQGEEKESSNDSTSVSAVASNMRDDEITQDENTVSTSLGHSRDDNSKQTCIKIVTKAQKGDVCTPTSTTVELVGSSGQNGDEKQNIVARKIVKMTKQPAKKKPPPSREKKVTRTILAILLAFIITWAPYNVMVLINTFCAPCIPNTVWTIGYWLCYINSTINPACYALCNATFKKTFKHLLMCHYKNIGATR

Rattus norvegicus [7] = assay: Compound was tested for activity in rat passive avoidance response (PAR) experiment, pretreatment time 1 hr with oral dose ranging from 0.001 to 0.1 mg/kg; Active; assay type: functional, organism-based
Rattus norvegicus [8] = species on record: Rattus norvegicus; assay: Efficacy was tested in a rat microdialysis assay where ACh release levels were measured; assay type: functional
[9] = biological target: Muscarinic receptor M2 and M3 (Rattus norvegicus) (UniProt P08483+P10980); assay: Ratio of binding affinity for muscarinic M3 receptor to muscarinic M2 receptor; assay type: protein assay
[10] = biological target: Muscarinic receptor M1 and M2 (Rattus norvegicus) (UniProt P08482+P10980); assay: Ratio of binding affinity of muscarinic M1 receptor to muscarinic M2 receptor; assay type: protein assay
Sequence of Muscarinic receptor M1 and M2 (Rattus norvegicus) (P08482 whole entry, looked up, one chain of several): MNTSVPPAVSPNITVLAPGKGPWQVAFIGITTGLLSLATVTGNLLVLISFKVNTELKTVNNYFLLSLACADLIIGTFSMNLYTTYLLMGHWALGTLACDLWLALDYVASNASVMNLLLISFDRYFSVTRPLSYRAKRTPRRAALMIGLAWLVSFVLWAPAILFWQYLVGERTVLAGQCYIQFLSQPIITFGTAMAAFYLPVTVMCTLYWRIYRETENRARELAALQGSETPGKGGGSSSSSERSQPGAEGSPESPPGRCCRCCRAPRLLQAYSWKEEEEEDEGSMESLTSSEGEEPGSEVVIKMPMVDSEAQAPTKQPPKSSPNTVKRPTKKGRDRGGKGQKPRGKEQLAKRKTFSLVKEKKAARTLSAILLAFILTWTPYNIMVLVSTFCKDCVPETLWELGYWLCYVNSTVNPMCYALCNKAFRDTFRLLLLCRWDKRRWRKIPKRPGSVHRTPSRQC

Sequence of Muscarinic receptor M2 and M3 (Rattus norvegicus) (P08483 whole entry, looked up, one chain of several): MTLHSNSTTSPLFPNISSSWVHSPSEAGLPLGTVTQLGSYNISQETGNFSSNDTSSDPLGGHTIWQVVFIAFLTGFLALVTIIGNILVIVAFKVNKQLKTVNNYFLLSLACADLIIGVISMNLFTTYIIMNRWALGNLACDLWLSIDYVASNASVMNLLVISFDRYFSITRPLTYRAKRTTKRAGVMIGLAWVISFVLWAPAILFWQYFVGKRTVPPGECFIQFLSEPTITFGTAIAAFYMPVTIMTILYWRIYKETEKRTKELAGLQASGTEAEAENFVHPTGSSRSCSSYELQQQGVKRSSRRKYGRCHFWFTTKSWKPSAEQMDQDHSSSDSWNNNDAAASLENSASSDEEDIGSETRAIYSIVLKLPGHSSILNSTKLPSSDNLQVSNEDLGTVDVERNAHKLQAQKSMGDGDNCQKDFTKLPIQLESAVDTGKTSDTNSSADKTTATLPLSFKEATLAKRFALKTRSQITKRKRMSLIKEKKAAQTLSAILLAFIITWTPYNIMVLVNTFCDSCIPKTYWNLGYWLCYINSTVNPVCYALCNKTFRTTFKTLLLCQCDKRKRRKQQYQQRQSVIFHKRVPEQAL

Ki [6] [nM] | Ratio [10] | Structure (SMILES) | also measured
0.39 | – | COc1ccc(S(=O)(=O)c2ccc(C3(C4CCN(C5CCN(C(=O)c6cccc(C)c6N)CC5)CC4)OCCO3)cc2)cc1 | bioavailability [1]: 15%; Heart rate (Rattus norvegicus [2]): Increased heart rate; bioavailability [3]: 80%; AUC [4]: 1570 ng·h/mL; Heart rate (Rattus norvegicus [5]): inactive; Activity (Rattus norvegicus [7]): Active; Acetylcholine release (Rattus norvegicus [8]): 194%
0.78 | – | COc1ccc(S(=O)(=O)c2ccc(C3(C4CCN(C5CCN(C(=O)c6cccc(N)c6)CC5)CC4)OCCO3)cc2)cc1 | –
0.065 | 28 | Cc1ccccc1C(=O)N1CCC(N2CCC(C3(c4ccc(S(=O)(=O)c5ccc6c(c5)OCO6)cc4)OCCO3)CC2)CC1 | Ratio [9]: 8
0.54 | – | COc1ccc(S(=O)(=O)c2ccc(C3(C4CCN(C5CCN(C(=O)c6ccccc6C)CC5)CC4)OCCO3)cc2)cc1 | –
1.2 | – | COc1ccc(S(=O)(=O)c2ccc(C3(C4CCN(C5CCN(C(=O)c6ccccc6OC)CC5)CC4)OCCO3)cc2)cc1 | –
1.4 | 66 | COc1ccc(S(=O)(=O)c2ccc(C3(C4CCN(C5CCN(C(=O)c6cccc(C)c6C)CC5)CC4)OCCO3)cc2)cc1 | Ratio [9]: 40
2.3 | – | COc1ccc(S(=O)(=O)c2ccc(C3(C4CCN(C5CCN(C(=O)c6c(Cl)cccc6Cl)CC5)CC4)OCCO3)cc2)cc1 | –
0.51 | – | COc1ccc(S(=O)(=O)c2ccc(C3(C4CCN(C5CCN(C(=O)c6cccc(F)c6N)CC5)CC4)OCCO3)cc2)cc1 | –
1.5 | – | COc1ccc(S(=O)(=O)c2ccc(C3(C4CCN(C5CCN(C(=O)c6ccccc6N)CC5)CC4)OCCO3)cc2)cc1 | –
0.44 | – | COc1ccc(S(=O)(=O)c2ccc(C3(C4CCN(C5CCN(C(=O)c6ccc(F)cc6N)CC5)CC4)OCCO3)cc2)cc1 | –
1.1 | – | COc1ccc(S(=O)(=O)c2ccc(C3(C4CCN(C5CCN(C(=O)c6cccc(Cl)c6N)CC5)CC4)OCCO3)cc2)cc1 | –
0.53 | – | COc1ccc(S(=O)(=O)c2ccc(C3(C4CCN(C5CCN(C(=O)c6cc(N)ccc6Cl)CC5)CC4)OCCO3)cc2)cc1 | –
51 | 14 | COc1ccc([S+]([O-])c2ccc(C3(C4CCN(C5CCN(C(=O)c6ccccc6C)CC5)CC4)O[C@H](C)[C@@H](C)O3)cc2)cc1 (some centres not stated) | –
0.53 | – | COc1ccc(S(=O)(=O)c2ccc(C3(C4CCN(C5CCN(C(=O)c6cccc(N)c6Cl)CC5)CC4)OCCO3)cc2)cc1 | Acetylcholine release (Rattus norvegicus [8]): 135%
1 | – | COc1ccc(S(=O)(=O)c2ccc(C3(C4CCN(C5CCN(C(=O)c6ccccc6C(F)(F)F)CC5)CC4)OCCO3)cc2)cc1 | –
1.6 | – | COc1ccc(S(=O)(=O)c2ccc(C3(C4CCN(C5CCN(C(=O)c6ccccc6Cl)CC5)CC4)OCCO3)cc2)cc1 | –
1.8 | – | COc1ccc(S(=O)(=O)c2ccc(C3(C4CCN(C5CCN(C(=O)c6ccccc6Br)CC5)CC4)OCCO3)cc2)cc1 | –
18 | 32 | COc1ccc(S(=O)(=O)c2ccc(C3(C4CCN(C5CCN(C(=O)c6ccccc6C)CC5)CC4)O[C@H](C)[C@@H](C)O3)cc2)cc1 | –
0.86 | 89 | COc1ccc(S(=O)(=O)c2ccc(C3(C4CCN(C5CCN(C(=O)c6ccccc6C)CC5)CC4)SCCS3)cc2)cc1 | Ratio [9]: 15
2.5 | 146 | COc1ccc([S+]([O-])c2ccc(C3(C4CCN(C5CCN(C(=O)c6ccccc6C)CC5)CC4)OCCO3)cc2)cc1 (configuration not stated) | Ratio [9]: 35
0.9 | – | CNc1ccccc1C(=O)N1CCC(N2CCC(C3(c4ccc(S(=O)(=O)c5ccc(OC)cc5)cc4)OCCO3)CC2)CC1 | –
0.4 | – | COc1ccc(S(=O)(=O)c2ccc(C3(C4CCN(C5CCN(C(=O)c6cccc(N)c6C)CC5)CC4)OCCO3)cc2)cc1 | –
4.8 | 49 | COc1ccc(S(=O)(=O)c2ccc(C3(C4CCN(C5CCN(C(=O)c6ccccc6F)CC5)CC4)OCCO3)cc2)cc1 | Ratio [9]: 8
– | – | COc1ccc(S(=O)(=O)c2ccc(C3(C4CCN(C5CCN(C(=O)c6ccc(F)c7ccccc67)CC5)CC4)OCCO3)cc2)cc1 | Acetylcholine release (Rattus norvegicus [8]): 180%
0.72 | 42 | COc1ccc(S(=O)(=O)c2ccc(C3(C4CCN(C5CCN(C(=O)c6cccc(Cl)c6C)CC5)CC4)OCCO3)cc2)cc1 | –
0.68 | – | COc1ccc(S(=O)(=O)c2ccc(C3(C4CCN(C5CCN(C(=O)c6cc(F)ccc6N)CC5)CC4)OCCO3)cc2)cc1 | –
